Patent US20170119806A1, “[…] LACTONE DERIVATIVES AND METHODS OF MAKING AND USING THEREOF” (OHIO STATE INNOVATION FOUNDATION, priority 2014, published 2017)
pIC50: −log10 of the molar value. “Also recorded” adds a separate entry of the source.

Columns and labels:
[1] = tested on: HT-29 human colon cancer cells
Description: The cytotoxicity of the test compounds was screened against HT-29 cells by a previously reported procedure (Ren Y et al. J. Nat. Prod 2011, 74, 1117-1125). Paclitaxel and etoposide were used as positive controls.
All arylnaphthalene lignans isolated from P. poilanet in the present study and their semi-synthetic analogues were evaluated for their cytotoxicity against HT-29 human colon cancer cells, using paclitaxel as the positive control (Table 6) (Ren Y et al. J. Nat. Prod 2011, 74, 1117-1125).

Toxicity of PL-C in mice = format: in vivo; details: up to 500 mg PL-C/kg body weight
Text: The findings discussed herein provide an avenue to prevent or treat cancer using natural products and their derivatives through enhancing NK cell immuno-surveillance. […] Developing less toxic drugs is important for preventing or treating some cancers, especially thr those which are dominant in children or in elderly populations, such as AML AML primarily affects older adults: the median age at diagnosis is >65 years (Estey E and Milner H. Lancet 2006, 368, 18941907; Yanada M and Naoe T. Int. J. Hematol. 2012, 96, 186-193). The 5 year survival rate of AML in older adults remains under 10% (Stein E M and Tallman M S. Int J. Hematol 2012, 96, 164-170). Elderly AML patients are less able than younger patients to tolerate effective therapies such as intensive chemotherapy and allogeneic stem cell transplantation.

[2] = tested on: C3-3P NF-κB p65 binding site of the IFNG promoter; assay: EMSA and ChIP of p65 binding to the IFNG promoter; format: cell-based, human; details: 10 μM PL-C with IL-12 (10 ng/mL), 12 h, ChIP
Description: (A) Schematic of IFNG promoter potential binding sites for p65 (45). (B) NK cells purified from healthy donors were treated with 10 μM PL-C or DMSO vehicle control in the presence of IL-12 (10 ng/mL) for 12 h. Cell pellets were harvested for nuclear extraction, followed by EMSA with a ^32P-labeled oligonucleotide containing the C3-3P NF-κB p65 binding site of the IFNG promoter. Data shown represent one of three donors with similar results. (C) Cells were treated as described in (B), and the cell pellets were harvested to extract protein for ChIP assay of p65 binding to the IFNG promoter locus C3-3P. Mean of relative association of p65 at the IFNG promoter locus C3-3P from three independent experiments is shown. *p<0.05, compared with cells treated with IL-12 alone. Error bars represent S.D.
EMSA. Nuclear extracts were isolated using a nuclear extract kit, according to the manufacturer's instruction (Active Motif, Carlsbad, Calif.). EMSA was performed as described previously (Bachmeyer C et al. Nucleic Acids Res, 1999, 27, 643-648). […]
Chromatin immunoprecipitation. […] DNA precipitated by the anti-p65 or the normal IgG Abs was quantified by real-time PCR, and values were normalized to input DNA.

CD4+ or CD8+ T cells = assay: T cell IFN-γ production (intracellular flow cytometry in PBMCs); format: cell-based, human; details: 10 μM PL-C, 18 h, with IL-12 or IL-15; listed as PL-C
Description: (A) Human […] were treated with DMSO vehicle control or 10 μM PL-C for 18 hours in the presence of IL-12 (10 ng/mL) or IL-15 (100 ng/mL), as described in FIG. 37C. The cells were harvested for intracellular flow cytometry to determine the frequency of IFN-γ^+ cells in CD56^−CD3^+[…] or CD56^−CD3^+CD8^+T. Representative data from 1 out of 5 donors are shown. (B) Purified primary NK cells were treated with IL-12 (10 ng/mL) or IL-15 (100 ng/mL) with or without 10 μM PL-C for 8 hours and were sequentially co-cultured with […] labeled ARH-77 cells at various effector/target cell ratios for additional 4 hours. ^51Cr release was measured by a TopCount counter. Data shown are the means of 3 donors. […] Error bars represent S.D. (C) Purified primary NK cells were treated with 10 μM PL-C in the presence of IL-12 (10 ng/mL) (top) or IL-15 (100 ng/mL) (bottom) for 12 hours, and cell pellets were harvested for detecting granzyme A (GZMA), granzyme B (GZMB), perforin (PRF1) and Fas (Fasl) mRNA expression level by real-time RT-PCR. Data shown are the means of 6 donors. p>0.05, vehicle control versus PL-C in all panels. Error bars represent S.D.
Intracellular flow cytometry. […] Data were acquired using an LSRII (BD Biosciences) flow cytometer and analyzed using FlowJo software (Tree Star, Ashland, Oreg.).

[3] = tested on: CCD-112CoN normal human colon cells; assay: Cytotoxicity against CCD-112CoN cells
Description: Following a previous procedure (Still P C et al. J. Nat. Prod. 2013, 76, 243-249) and the method for screening cytotoxicity towards HT-29 cells mentioned above, the cytotoxicity of the samples was screened against CCD-112CoN normal human colon cells.

## COc1cc2c(OC3OCC(O)C(O)C3O)c3c(c(-c4ccc5c(c4)OCO5)c2cc1OC)C(=O)OC3 (stereo not drawn) [Compound 4, Phyllanthusmin C]
[1]
  cytotoxicity toward HT-29 cells (in words): cytotoxic
Toxicity of PL-C in mice
  toxicity in mice: lack of substantial toxicities
[2]
  p65 binding to the C3-3P site of the IFNG promoter: enhanced p65 binding to the C3-3P binding site
CD4+ or CD8+ T cells
  T cell IFN-γ production: little or no; also recorded: negligibly activated T cell IFN-γ production; also recorded: few, if any
[3]
  cytotoxicity toward CCD-112CoN human normal colon cells (in words): non-cytotoxic
[3]; read-out: IC50 values toward the CCD-112 CoN cells, Table 6
  pIC50: < 4.00
